In patent publication US20220187282A1, “CARDIOMYOCYTE PROLIFERATION” (The Council of the Queensland Institute of Medical Research, priority 2019, published 2022):
Like-named read-outs stand apart in the source and are kept apart here.

Experiments:
Format in all cases: biochemical
kinases [1] = molecular target: kinases (Homo sapiens, UniProt Q9H1R3); details: MYLK2 FRET-Z-lyte SP
kinases [2] = molecular target: kinases (Homo sapiens, UniProt Q9UKI8); details: TLK1 FRET-Lantha SP; Test Conc(μM) 1
kinases [3] = molecular target: kinases (Homo sapiens, UniProt P42345); details: FRAP1 (mTOR) *Mn* Z-Lyte SP; Test Conc(μM):ATP Conc(μM) 1:10
kinases [4] = molecular target: kinases (Homo sapiens, UniProt P41743); details: PRKCI (PKC iota) Z-Lyte SP; Test Conc(μM):ATP Conc(μM) 1:25
kinases [5] = molecular target: kinases (Homo sapiens, UniProt Q8TD08); details: MAPK15 (ERK7) FRET-Lantha SP; Test Conc(μM) 1
Chain of kinases (Homo sapiens, UniProt Q8TD08) (Q8TD08 whole entry): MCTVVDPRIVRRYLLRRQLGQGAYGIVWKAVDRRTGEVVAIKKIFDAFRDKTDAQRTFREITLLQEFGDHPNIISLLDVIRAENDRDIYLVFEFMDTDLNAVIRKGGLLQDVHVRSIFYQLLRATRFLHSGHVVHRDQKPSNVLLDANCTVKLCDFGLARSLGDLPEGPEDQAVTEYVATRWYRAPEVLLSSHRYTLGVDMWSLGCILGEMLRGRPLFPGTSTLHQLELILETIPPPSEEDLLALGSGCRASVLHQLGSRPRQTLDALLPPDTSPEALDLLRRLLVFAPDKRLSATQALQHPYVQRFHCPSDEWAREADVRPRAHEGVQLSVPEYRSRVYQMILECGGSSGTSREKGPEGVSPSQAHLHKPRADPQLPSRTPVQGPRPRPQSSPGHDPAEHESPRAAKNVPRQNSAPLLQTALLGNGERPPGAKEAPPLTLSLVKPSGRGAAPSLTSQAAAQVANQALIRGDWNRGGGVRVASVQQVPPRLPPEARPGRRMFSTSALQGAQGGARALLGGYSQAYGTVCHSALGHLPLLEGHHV

kinases [6] = molecular target: kinases (Homo sapiens, UniProt Q13873); details: BMPR2 FRET-Lantha SP; Test Conc(μM) 1
kinases [7] = molecular target: kinases (Homo sapiens, UniProt P04626); details: ERBB2 (HER2) *Mn* Z-Lyte SP; Test Conc(μM):ATP Conc(μM) 1:10
Chain of kinases (Homo sapiens, UniProt P04626) (P04626 23-1255): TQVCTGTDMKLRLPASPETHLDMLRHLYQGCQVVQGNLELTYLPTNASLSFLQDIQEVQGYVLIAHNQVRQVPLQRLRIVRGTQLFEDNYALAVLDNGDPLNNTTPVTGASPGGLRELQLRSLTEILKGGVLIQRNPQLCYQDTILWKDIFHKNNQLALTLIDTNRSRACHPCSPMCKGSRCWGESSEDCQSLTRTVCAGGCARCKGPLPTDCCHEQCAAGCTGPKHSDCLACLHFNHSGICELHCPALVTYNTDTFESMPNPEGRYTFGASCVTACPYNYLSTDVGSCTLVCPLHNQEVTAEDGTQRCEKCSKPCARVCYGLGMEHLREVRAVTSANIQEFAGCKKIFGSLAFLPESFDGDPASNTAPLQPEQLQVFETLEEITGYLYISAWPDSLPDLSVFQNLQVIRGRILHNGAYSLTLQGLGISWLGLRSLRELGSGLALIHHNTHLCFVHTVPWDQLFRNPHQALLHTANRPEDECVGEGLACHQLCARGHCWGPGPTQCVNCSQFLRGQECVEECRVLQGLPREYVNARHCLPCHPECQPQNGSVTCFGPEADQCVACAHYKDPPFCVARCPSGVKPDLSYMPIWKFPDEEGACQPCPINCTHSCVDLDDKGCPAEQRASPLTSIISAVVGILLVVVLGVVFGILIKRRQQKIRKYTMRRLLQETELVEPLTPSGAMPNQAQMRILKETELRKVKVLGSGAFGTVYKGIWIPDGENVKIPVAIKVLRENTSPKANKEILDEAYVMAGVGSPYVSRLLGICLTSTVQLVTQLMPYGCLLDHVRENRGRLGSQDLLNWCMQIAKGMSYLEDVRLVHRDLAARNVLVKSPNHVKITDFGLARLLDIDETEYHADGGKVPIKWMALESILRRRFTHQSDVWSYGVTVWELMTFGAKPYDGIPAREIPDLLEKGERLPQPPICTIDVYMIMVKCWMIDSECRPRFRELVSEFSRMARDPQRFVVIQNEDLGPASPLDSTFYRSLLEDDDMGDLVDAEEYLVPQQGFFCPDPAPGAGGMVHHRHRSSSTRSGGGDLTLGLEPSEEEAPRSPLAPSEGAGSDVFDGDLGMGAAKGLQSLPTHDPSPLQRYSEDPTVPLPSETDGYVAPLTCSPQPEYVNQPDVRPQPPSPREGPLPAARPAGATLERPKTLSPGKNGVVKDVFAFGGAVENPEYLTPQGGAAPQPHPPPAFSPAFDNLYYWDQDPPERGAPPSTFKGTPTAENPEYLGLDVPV

kinases [8] = molecular target: kinases (Homo sapiens, UniProt Q8N752); details: CSNK1A1L FRET-Z-Lyte SP; Test Conc(μM):ATP Conc(μM) 1:5
Chain of kinases (Homo sapiens, UniProt Q8N752) (Q8N752 whole entry): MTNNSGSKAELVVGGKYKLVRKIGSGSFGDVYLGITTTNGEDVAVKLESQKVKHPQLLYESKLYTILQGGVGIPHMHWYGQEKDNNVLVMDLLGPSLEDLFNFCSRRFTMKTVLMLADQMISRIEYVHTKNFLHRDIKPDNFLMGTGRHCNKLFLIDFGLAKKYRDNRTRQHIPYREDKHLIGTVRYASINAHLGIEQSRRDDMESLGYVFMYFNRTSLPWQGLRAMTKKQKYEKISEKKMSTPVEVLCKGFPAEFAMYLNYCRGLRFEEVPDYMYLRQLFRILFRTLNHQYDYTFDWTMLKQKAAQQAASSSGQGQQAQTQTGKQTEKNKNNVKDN

kinases [9] = molecular target: kinases (Homo sapiens, UniProt Q9UKE5); details: TNIK FRET-Lantha SP; Test Conc(μM) 1
kinases [10] = molecular target: kinases (Homo sapiens, UniProt Q16288); details: NTRK3 (TRKC) FRET-Z-Lyte SP; Test Conc(μM):ATP Conc(μM) 1:50
kinases [11] = molecular target: kinases (Homo sapiens, UniProt P21802); details: FGFR2 *Mn* FRET-Z-Lyte SP; Test Conc(μM):ATP Conc(μM) 1:5
kinases [12] = molecular target: kinases (Homo sapiens, UniProt P35626); details: ADRBK2 (GRK3) FRET-Z-Lyte SP; Test Conc(μM):ATP Conc(μM) 1:10
kinases [13] = molecular target: kinases (Homo sapiens, UniProt Q07912); details: TNK2 (ACK) FRET-Lantha SP; Test Conc(μM) 1
kinases [14] = molecular target: kinases (Homo sapiens, UniProt Q15349); details: RPS6KA2 (RSK3) FRET-Z-Lyte SP; Test Conc(μM):ATP Conc(μM) 1:10
kinases [15] = molecular target: kinases (Homo sapiens, UniProt Q02779); details: MAP3K10 (MLK2) FRET-Lantha SP; Test Conc(μM) 1
kinases [16] = molecular target: kinases (Homo sapiens, UniProt P51812); details: RPS6KA3 (RSK2) FRET-Z-Lyte SP; Test Conc(μM):ATP Conc(μM) 1:10
kinases [17] = molecular target: kinases (Homo sapiens, UniProt Q14289); details: PTK2B (FAK2) *Mn* Z-Lyte SP; Test Conc(μM):ATP Conc(μM) 1:5
kinases [18] = molecular target: kinases (Homo sapiens, UniProt P48730); details: CSNK1D (CK1 delta) Z-Lyte SP; Test Conc(μM):ATP Conc(μM) 1:5
kinases [19] = molecular target: kinases (Homo sapiens, UniProt P16591); details: FER FRET-Z-Lyte SP; Test Conc(μM):ATP Conc(μM) 1:25
kinases [20] = molecular target: kinases (Homo sapiens, UniProt Q9HC98); details: NEK6 FRET-Z-Lyte SP; Test Conc(μM):ATP Conc(μM) 1:100
Chain of kinases (Homo sapiens, UniProt Q9HC98) (Q9HC98 whole entry): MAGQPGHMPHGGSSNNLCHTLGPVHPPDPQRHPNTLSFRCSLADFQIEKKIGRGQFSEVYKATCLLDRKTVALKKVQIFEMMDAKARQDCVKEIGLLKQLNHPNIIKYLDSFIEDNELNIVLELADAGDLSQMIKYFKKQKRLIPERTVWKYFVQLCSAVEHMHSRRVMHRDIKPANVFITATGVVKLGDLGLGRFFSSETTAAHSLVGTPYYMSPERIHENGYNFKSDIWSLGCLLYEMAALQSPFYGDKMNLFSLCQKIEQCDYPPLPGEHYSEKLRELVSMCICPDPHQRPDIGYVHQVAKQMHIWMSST

kinases [21] = molecular target: kinases (Homo sapiens, UniProt Q13464); details: ROCK1 FRET-Z-Lyte SP; Test Conc(μM):ATP Conc(μM) 1:5
kinases [22] = molecular target: kinases (Homo sapiens, UniProt P08631); details: HCK FRET-Z-Lyte SP; Test Conc(μM):ATP Conc(μM) 1:25
kinases [23] = molecular target: kinases (Homo sapiens, UniProt Q99755); details: PIP5K1A FRET-Adapta SP; Test Conc(μM):ATP Conc(μM) 1:10
kinases [24] = molecular target: kinases (Homo sapiens, UniProt O60285); details: NUAK1 (ARK5) FRET-Adapta SP; Test Conc(μM):ATP Conc(μM) 1:25
kinases [25] = molecular target: kinases (Homo sapiens, UniProt O14920); details: IKBKB (IKKbeta) FRET-Z-Lyte SP; Test Conc(μM):ATP Conc(μM) 1:5
Chain of kinases (Homo sapiens, UniProt O14920) (O14920 whole entry): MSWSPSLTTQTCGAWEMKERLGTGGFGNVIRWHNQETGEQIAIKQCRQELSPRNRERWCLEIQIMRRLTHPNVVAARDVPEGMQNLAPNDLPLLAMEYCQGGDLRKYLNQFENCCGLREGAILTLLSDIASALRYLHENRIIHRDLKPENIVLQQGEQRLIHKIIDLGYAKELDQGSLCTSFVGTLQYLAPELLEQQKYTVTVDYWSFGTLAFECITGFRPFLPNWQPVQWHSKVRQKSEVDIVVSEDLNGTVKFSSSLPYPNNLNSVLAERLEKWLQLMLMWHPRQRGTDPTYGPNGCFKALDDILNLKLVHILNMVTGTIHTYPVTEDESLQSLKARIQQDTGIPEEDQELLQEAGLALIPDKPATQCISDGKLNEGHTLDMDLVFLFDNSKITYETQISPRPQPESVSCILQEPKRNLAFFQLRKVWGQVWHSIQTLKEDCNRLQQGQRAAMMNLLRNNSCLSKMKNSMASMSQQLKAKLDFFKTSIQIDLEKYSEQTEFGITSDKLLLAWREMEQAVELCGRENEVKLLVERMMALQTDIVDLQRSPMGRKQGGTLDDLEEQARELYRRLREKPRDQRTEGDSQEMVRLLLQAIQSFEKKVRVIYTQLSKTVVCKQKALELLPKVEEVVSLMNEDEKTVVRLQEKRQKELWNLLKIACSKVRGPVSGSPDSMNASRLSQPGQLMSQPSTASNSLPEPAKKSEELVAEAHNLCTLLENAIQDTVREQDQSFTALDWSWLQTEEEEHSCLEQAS

kinases [26] = molecular target: kinases (Homo sapiens, UniProt P17948); details: FLT1 (VEGFR1) *Mn* Z-Lyte SP; Test Conc(μM):ATP Conc(μM) 1:150
kinases [27] = molecular target: kinases (Homo sapiens, UniProt O00418); details: EEF2K FRET-Z-Lyte SP; Test Conc(μM):ATP Conc(μM) 1:10
Chain of kinases (Homo sapiens, UniProt O00418) (O00418 whole entry): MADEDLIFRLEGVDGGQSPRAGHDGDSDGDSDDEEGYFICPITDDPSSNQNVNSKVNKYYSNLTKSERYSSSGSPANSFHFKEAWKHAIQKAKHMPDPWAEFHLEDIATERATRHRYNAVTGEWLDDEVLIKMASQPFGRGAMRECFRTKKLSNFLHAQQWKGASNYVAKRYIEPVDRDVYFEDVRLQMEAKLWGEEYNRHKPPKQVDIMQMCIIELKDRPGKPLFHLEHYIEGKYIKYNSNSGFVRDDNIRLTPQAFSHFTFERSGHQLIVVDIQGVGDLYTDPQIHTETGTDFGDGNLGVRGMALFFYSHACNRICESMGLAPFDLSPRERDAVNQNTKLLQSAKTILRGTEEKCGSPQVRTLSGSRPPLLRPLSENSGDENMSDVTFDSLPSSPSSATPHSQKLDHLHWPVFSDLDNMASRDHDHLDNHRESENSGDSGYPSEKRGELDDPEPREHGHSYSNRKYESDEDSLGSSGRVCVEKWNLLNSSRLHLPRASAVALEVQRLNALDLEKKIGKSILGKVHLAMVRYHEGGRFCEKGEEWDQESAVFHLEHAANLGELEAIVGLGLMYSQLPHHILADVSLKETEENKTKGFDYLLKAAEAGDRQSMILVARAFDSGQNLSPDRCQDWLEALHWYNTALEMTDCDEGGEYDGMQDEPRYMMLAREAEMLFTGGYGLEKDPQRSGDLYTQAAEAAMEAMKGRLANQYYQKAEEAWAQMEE

kinases [28] = molecular target: kinases (Homo sapiens, UniProt Q8IWQ3); details: BRSK2 FRET-Lantha SP; Test Conc(μM) 1
Chain of kinases (Homo sapiens, UniProt Q8IWQ3) (Q8IWQ3 whole entry): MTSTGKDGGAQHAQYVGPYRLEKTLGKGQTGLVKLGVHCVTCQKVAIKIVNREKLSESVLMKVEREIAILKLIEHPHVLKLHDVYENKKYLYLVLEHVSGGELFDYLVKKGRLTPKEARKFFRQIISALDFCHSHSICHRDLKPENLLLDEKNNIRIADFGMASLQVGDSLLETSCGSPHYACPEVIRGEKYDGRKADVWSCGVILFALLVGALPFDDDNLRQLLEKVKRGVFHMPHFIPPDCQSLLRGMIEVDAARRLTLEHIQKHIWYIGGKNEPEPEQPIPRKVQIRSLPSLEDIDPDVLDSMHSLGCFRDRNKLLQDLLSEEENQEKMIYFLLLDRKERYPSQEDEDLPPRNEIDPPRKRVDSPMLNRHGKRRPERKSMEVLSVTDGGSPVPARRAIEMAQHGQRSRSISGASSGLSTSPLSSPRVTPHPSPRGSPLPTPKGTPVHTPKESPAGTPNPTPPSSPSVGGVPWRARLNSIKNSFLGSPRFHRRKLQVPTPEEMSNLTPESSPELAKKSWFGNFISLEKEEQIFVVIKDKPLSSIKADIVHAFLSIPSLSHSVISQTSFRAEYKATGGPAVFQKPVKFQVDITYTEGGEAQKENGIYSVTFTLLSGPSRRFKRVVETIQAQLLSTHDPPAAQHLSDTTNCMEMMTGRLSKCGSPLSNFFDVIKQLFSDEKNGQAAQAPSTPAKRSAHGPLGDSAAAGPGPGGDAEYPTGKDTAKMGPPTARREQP

SMILES | Mean Inhib (%) (kinases [2]) | Mean Inhib (%) (kinases [3]) | Mean Inhib (%) (kinases [4]) | Mean Inhib (%) (kinases [5]) | Mean Inhib (%) (kinases [6]) | Mean Inhib (%) (kinases [7]) | Mean Inhib (%) (kinases [8]) | Mean Inhib (%) (kinases [9]) | Mean Inhib (%) (kinases [10]) | Mean Inhib (%) (kinases [11]) | Mean Inhib (%) (kinases [12]) | Mean Inhib (%) (kinases [13]) | Mean Inhib (%) (kinases [14]) | Mean Inhib (%) (kinases [15]) | Mean Inhib (%) (kinases [16]) | Mean Inhib (%) (kinases [17]) | Mean Inhib (%) (kinases [18]) | Mean Inhib (%) (kinases [19]) | Mean Inhib (%) (kinases [20]) | Mean Inhib (%) (kinases [21]) | further results
Cc1ccc(NC(=O)c2ccnc(N3CCOCC3)c2)cc1Nc1ccnc(N2CC(C)OC(C)C2)n1 (centres unmarked) [compound 3] | −4.3% | 0.7% | −0.2% | 0.8% | −4.1% | 2.7% | 2.0% | 4.1% | 3.5% | 15.8% | 0.7% | 0.2% | 9.0% | 0.6% | 0.0% | 8.5% | 1.2% | 4.8% | −4.0% | 45.9% | Mean Inhib (%) (kinases [1]; Test Conc(μM):ATP Conc(μM) 1:300): 7.4%; Mean Inhib (%) (kinases [22]): 6.4%; Mean Inhib (%) (kinases [23]): −2.9%; Mean Inhib (%) (kinases [24]): −5.6%; Mean Inhib (%) (kinases [25]): 0.6%; Mean Inhib (%) (kinases [26]): 11.5%; Mean Inhib (%) (kinases [27]): 5.5%; Mean Inhib (%) (kinases [28]): 3.2%
Cc1cc(Oc2ccnc(Nc3ccc(S(N)(=O)=O)cc3)c2)c(-c2ccccn2)nc1C [compound 65] | −4.5% | −8.8% | 9.7% | 1.5% | 2.7% | 10.1% | 0.5% | 58.4% | 2.7% | 6.0% | −2.5% | 6.5% | 0.2% | 2.7% | −3.2% | −2.5% | 1.9% | 5.0% | 8.2% | 1.6% | Mean Inhib (%) (kinases [1]; Test Conc(μM):ATP Conc(μM) 0.25): −7.8%; Mean Inhib (%) (kinases [22]): 30.9%; Mean Inhib (%) (kinases [23]): 2.4%; Mean Inhib (%) (kinases [24]): −3.5%; Mean Inhib (%) (kinases [25]): −2.5%; Mean Inhib (%) (kinases [26]): 2.7%; Mean Inhib (%) (kinases [27]): 3.7%; Mean Inhib (%) (kinases [28]): 10.2%
